Assay results published in ChEMBL document CHEMBL1153601, “Rapid identification of improved protein ligands using peptoid microarrays” (Bioorg Med Chem Lett, 2009).
Activity calls are given as the source filed them. The calls are words filed in the database; no cut-off is given here. Where a SMILES comes first, the peptide text is derived from it. [ ]: non-standard residue; d: D form. Gly(N-piperonyl) = O=C(O)CNCc1ccc2c(c1)OCO2; Gly(N-propargyl) = C#CCNCC(=O)O; NFurfurylGly = O=C(O)CNCc1ccco1; NAllylGly = C=CCNCC(=O)O; Nleu = CC(C)CNCC(=O)O; Nlys = NCCCCNCC(=O)O

Tests used:
[1] = molecular target: T1, CREB-binding protein (Homo sapiens, UniProt Q92793); experiment: Binding affinity to histidine tagged KIX domain of CREB-binding protein by fluorescence polarization assay
Target sequence in this assay (Q92793 whole entry, the tested form may be a part): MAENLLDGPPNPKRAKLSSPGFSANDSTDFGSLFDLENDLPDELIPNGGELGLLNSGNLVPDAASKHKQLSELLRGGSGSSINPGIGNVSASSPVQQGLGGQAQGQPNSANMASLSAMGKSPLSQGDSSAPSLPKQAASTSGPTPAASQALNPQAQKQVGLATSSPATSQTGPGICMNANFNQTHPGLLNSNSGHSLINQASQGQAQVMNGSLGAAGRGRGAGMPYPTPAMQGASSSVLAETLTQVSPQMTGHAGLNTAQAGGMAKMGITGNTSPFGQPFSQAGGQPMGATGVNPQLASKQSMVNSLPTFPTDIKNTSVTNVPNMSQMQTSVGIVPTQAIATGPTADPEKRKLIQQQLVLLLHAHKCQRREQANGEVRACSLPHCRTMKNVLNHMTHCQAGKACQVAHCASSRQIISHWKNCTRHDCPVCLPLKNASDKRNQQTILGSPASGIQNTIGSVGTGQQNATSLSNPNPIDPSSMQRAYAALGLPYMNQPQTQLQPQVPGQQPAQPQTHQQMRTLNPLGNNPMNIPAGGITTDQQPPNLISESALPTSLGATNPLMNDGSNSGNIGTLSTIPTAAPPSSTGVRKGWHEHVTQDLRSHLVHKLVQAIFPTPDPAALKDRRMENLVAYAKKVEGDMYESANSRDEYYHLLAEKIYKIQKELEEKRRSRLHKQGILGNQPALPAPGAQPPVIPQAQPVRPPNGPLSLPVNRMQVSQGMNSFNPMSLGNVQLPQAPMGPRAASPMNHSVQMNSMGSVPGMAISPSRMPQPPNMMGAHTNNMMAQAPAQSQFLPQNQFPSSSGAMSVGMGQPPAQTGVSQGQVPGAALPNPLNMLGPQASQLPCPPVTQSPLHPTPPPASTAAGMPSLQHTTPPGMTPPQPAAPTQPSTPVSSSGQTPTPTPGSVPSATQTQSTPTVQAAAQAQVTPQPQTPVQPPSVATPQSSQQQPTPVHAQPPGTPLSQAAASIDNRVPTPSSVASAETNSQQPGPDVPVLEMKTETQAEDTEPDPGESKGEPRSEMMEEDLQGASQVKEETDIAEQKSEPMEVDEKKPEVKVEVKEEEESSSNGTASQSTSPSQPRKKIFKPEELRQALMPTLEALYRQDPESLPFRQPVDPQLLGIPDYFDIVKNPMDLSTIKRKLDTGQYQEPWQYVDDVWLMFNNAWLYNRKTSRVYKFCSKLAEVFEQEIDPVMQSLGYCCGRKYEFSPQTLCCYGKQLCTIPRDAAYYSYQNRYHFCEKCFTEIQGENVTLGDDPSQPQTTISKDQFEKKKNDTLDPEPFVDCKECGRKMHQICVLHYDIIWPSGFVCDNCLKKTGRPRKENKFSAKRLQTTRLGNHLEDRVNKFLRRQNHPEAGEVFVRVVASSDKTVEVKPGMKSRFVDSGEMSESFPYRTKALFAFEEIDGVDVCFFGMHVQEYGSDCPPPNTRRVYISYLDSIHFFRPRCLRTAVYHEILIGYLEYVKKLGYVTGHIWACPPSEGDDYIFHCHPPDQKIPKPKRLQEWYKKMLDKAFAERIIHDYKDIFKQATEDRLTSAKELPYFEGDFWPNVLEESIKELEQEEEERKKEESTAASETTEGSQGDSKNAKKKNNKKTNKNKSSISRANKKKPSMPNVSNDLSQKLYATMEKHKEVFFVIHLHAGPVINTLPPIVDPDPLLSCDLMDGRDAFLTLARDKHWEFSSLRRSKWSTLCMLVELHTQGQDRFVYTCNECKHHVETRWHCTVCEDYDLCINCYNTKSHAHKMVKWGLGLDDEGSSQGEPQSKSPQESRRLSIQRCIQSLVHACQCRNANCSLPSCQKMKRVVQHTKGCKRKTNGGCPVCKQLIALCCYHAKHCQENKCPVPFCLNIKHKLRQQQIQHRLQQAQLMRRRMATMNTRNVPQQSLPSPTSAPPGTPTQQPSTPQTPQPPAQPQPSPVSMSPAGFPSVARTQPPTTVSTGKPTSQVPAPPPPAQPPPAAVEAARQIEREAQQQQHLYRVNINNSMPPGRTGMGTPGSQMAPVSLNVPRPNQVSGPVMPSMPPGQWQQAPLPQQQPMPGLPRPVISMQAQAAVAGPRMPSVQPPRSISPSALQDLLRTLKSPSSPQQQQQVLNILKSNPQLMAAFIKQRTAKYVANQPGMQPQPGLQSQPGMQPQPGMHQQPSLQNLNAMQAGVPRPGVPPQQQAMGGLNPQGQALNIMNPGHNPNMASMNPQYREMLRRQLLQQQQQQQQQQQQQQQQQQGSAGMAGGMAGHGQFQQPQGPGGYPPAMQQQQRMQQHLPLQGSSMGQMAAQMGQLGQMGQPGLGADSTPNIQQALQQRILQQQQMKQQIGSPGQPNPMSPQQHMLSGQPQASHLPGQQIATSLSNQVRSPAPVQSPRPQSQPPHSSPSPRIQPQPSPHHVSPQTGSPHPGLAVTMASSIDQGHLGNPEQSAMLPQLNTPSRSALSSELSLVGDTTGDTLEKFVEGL

[2] = molecular target: T1, CREB-binding protein; experiment: Binding affinity to histidine tagged KIX domain of CREB-binding protein expressed in Escherichia coli by affinity purification assay
Target sequence in this assay (Q92793 2-2442 limits assumed): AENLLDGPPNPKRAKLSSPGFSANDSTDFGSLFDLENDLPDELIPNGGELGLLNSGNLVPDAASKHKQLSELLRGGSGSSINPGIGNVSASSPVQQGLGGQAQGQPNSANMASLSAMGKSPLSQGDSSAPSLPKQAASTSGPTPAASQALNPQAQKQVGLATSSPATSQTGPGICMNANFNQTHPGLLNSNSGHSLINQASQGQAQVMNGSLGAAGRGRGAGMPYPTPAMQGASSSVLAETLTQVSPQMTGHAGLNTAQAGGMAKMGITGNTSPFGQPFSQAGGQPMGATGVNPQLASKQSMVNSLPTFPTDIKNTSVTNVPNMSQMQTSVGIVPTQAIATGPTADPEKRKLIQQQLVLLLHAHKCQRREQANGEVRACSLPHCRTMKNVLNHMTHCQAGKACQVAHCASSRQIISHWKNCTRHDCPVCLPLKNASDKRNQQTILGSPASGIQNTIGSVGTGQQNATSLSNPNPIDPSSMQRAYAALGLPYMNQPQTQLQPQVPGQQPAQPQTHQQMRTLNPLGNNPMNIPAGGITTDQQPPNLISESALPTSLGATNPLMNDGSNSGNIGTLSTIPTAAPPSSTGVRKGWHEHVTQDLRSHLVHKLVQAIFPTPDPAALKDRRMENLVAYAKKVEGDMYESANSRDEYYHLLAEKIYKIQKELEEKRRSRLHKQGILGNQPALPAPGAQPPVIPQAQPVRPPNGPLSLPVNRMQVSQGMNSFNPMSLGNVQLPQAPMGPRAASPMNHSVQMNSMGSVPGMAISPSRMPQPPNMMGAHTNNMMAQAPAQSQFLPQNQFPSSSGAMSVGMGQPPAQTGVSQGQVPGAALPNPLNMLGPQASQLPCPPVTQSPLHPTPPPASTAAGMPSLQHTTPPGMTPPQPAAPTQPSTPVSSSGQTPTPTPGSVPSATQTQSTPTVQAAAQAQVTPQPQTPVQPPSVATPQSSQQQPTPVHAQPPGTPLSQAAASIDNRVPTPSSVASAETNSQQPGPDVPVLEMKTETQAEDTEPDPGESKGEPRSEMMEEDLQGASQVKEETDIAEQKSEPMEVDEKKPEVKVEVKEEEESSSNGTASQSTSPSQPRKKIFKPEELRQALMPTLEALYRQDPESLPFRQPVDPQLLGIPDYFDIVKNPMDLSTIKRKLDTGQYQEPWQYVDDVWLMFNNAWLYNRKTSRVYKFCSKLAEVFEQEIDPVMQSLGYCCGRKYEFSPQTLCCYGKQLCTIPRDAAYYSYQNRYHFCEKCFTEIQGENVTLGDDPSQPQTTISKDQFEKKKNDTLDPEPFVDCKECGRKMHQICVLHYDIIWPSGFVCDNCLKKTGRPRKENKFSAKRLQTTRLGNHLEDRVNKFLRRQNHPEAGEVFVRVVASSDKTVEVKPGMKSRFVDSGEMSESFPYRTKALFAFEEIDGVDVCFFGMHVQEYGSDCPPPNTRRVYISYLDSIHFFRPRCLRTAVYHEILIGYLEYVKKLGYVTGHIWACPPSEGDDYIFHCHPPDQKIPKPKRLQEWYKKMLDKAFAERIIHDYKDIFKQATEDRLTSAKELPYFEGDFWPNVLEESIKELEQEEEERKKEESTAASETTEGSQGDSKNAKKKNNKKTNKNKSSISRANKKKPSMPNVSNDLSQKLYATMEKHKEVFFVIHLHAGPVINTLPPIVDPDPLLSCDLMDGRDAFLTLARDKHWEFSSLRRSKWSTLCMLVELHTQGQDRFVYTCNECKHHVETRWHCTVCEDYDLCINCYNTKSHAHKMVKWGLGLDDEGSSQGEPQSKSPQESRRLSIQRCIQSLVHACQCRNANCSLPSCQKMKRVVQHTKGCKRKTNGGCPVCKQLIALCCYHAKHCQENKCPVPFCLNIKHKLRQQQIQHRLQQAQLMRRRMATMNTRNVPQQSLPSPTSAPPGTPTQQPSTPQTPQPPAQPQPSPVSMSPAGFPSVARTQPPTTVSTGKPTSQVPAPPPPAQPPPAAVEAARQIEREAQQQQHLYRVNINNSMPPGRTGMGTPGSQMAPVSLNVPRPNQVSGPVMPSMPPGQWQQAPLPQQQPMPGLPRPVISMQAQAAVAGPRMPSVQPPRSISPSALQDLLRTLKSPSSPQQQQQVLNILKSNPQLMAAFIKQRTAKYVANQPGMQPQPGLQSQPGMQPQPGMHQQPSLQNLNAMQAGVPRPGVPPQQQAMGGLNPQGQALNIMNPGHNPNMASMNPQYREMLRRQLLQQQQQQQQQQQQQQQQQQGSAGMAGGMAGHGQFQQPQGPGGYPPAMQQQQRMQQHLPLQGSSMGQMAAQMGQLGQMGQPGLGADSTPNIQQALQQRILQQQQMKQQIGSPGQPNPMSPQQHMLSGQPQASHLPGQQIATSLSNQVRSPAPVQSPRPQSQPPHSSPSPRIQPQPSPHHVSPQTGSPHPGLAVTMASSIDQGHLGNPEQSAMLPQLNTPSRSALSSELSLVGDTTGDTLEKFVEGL

Compound `CC(C)CN(CC(=O)N(CC(=O)N(CCCCN)CC(=O)N(CC(=O)N(CCCCn1cc(CNCC(=O)N(CC(=O)N(CCO)CC(=O)N(CC(=O)N(CC(=O)N(CCCCN)CC(=O)N(CC(N)=O)Cc2ccco2)Cc2ccco2)Cc2ccc3c(c2)OCO3)Cc2ccco2)nn1)CC(N)=O)Cc1ccc2c(c1)OCO2)Cc1ccc2c(c1)OCO2)C(=O)CN(CCCCN)C(=O)CNCc1ccc2c(c1)OCO2` has a Kd [1] of 72.8 µM.
Work on `C=CCN(CC(=O)N(CC(N)=O)CC(C)C)C(=O)CN(Cc1ccco1)C(=O)CN(Cc1ccco1)C(=O)CN(Cc1ccco1)C(=O)CN(CC(C)C)C(=O)CNCc1cn(CCCCN(CC(N)=O)C(=O)CN(Cc2ccc3c(c2)OCO3)C(=O)CN(CCCCN)C(=O)CN(Cc2ccc3c(c2)OCO3)C(=O)CN(CC(C)C)C(=O)CN(CCCCN)C(=O)CNCc2ccc3c(c2)OCO3)nn1` yielded a Kd [1] of 8.3 µM.
For `CC(C)CN(CC(=O)N(CCCCN)CC(=O)N(CC(N)=O)Cc1ccc2c(c1)OCO2)C(=O)CN(Cc1ccc2c(c1)OCO2)C(=O)CN(CCCCN)C(=O)CNCc1ccc2c(c1)OCO2` (H-[Gly(N-piperonyl)][Nlys][Gly(N-piperonyl)][Nleu][Nlys][Gly(N-piperonyl)]-NH2), the Activity [2] was “inactive” and the Kd [1] was 195 µM.
In the case of `C#CCNCC(=O)N(CC(=O)N(CC(=O)N(CC(=O)N(CC(=O)N(CC=C)CC(=O)N(CC(N)=O)CC(C)C)Cc1ccco1)Cc1ccco1)Cc1ccco1)CC(C)C` (H-[Gly(N-propargyl)][Nleu][NFurfurylGly][NFurfurylGly][NFurfurylGly][NAllylGly][Nleu]-NH2), the Activity [2] is reported as “Active” and the Kd [1] is reported as 4.6 µM.
